Assay results taken from PMC10770036, “Novel dual inhibitors of PARP and HDAC induce intratumoral STING-mediated antitumor immunity in triple-negative breast cancer” (Cell Death & Disease, 2024).

What was measured:
PARP1 = biological target: T1, PARP1 (Homo sapiens, UniProt P09874); test: PARP1 enzymatic inhibition assay (PARP1 Colorimetric Assay Kit); format: biochemical
T1 construct: purchased BPS Bioscience 80580
Description: Briefly, the 1× histone mixture was added to each well and incubated overnight at 4 °C. Each well was washed three times with 200 µL 1× TBST buffer and filled with 200 µL Blocking buffer at room temperature for 90 min. Then, each well was filled with 25 µL of PARP master mixture (5 μL activated DNA + 2.5 μL 10× PARP Assay mixture + 2.5 μL 10× PARP buffer + 15 μL distilled water). Next, 5 µL of the compound of different concentrations was added to each well, and PARP enzyme was added and incubated at room temperature for 1 h. Next, streptavidin HRP solution was added and incubated at room temperature for 30 min. After adding 100 µL of colorimetric HRP substrate to each well, the plate was incubated until a blue color developed in the positive well, which contained PARP enzyme without inhibitors. The reaction was then quenched with 2 M sulfuric acid, and absorbance at 450 nm was measured using a microplate reader (BioTek, Winooski, VT, USA). After calculating the inhibition rate, the IC50 value was determined.

MCF-10A cells = test: MTT cell viability assay, MCF-10A; settings: Homo sapiens, 72 h, read-out: IC50 MCF-10A
Description: The viability assay was measured by a 3-(4,5-dimethylthiazol-2-yl)−2,5-diphenyltetrazolium bromide (MTT) assay.
In brief, cells were seeded at a density of 6,000 cells in 96-well plates and cultured overnight. […] After aspiration of the medium, the formazan crystals were dissolved in 100 μL of DMSO. The absorbance at 490 nm was measured using a microplate reader (BioTek). All these analyses were performed at least three times.

recombinant HDAC6 = biological target: T2, recombinant HDAC6 (Homo sapiens, UniProt Q9UBN7); test: HDAC6 inhibition assay (Ac-peptide-AMC fluorescence); format: biochemical
T2 construct: purchased BPS Bioscience
T2 sequence (Q9UBN7 1-1215): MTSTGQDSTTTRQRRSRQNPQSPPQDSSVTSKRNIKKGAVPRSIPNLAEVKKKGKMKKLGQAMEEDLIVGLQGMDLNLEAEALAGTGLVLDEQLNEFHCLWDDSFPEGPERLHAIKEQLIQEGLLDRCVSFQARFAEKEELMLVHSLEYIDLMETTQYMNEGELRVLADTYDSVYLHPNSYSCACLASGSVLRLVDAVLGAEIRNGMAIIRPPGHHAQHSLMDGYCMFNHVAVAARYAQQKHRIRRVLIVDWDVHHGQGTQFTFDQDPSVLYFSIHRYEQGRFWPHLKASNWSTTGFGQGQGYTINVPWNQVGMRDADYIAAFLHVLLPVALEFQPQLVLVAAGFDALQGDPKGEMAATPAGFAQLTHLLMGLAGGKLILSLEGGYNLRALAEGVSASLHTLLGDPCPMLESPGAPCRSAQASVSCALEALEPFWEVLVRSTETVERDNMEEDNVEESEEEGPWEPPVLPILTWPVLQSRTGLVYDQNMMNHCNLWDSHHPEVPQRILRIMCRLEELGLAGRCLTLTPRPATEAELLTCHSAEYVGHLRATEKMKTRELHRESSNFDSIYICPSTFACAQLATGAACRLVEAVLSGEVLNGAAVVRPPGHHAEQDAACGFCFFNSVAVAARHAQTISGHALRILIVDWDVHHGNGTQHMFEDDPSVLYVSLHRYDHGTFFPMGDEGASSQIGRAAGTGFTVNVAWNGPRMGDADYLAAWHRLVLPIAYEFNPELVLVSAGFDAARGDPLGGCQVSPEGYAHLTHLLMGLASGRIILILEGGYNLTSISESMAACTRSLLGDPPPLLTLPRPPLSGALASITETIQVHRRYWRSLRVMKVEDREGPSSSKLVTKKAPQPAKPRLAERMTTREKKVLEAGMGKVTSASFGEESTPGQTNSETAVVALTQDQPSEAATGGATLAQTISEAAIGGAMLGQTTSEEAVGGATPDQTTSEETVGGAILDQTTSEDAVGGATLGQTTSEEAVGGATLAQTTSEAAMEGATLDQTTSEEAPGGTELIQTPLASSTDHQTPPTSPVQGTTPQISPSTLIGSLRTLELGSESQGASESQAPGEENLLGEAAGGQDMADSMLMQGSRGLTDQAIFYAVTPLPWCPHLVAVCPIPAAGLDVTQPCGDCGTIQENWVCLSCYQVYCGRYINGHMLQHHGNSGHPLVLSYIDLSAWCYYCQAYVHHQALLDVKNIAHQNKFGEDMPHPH
Description: (§1) The in vitro HDAC inhibition assays were carried out by Sundia MediTech Co. Ltd. in Shanghai, China. […] Reactions were stopped with trypsin, and the samples were incubated for another 90 min at 37 °C. […] IC50 values were obtained using GraphPad Prism software.

[1] = Body weight of tumor-bearing mice; format: in vivo
From the text: MDA-MB-436, MDA-MB-231, and 4T1 cells were orthotopically injected into the fat pads of 6- to 7-week-old female NOD-Prkdc^scid Il2rg^em1Smoc (M-NSG), BALB/c nude and BALB/c mice, respectively. Fourteen 6-week-old female MMTV-PyMT mice were divided into two groups. The […] in each group were littermates. All animal procedures were approved by the Institutional Animal Care and Use Committee at Shenzhen University.
MDA-MB-436 cells (5 × 10^6) were suspended in PBS and Matrigel (Corning) at a 1:1 ratio and orthotopically injected into the fat pads of 6- to 7-week-old female NOD-Prkdc^scid Il2rg^em1Smoc (M-NSG) mice from the Shanghai Model Organisms Center, Inc. MDA-MB-231 cells (5 × 10^6) were suspended in PBS orthotopically injected into the fat pads of 6- to 7-week-old female BALB/c nude mice from the Shanghai Model Organisms Center, Inc. 4T1 cells (1 × 10^6) were suspended in PBS and injected into the fat pads of 6- to 7-week-old […] BALB/c mice from GemPharmatech Co., Ltd. When the tumor size reached 100 mm^3, the mice were randomly divided into three treatment groups without blinding: B102 (15 mg/kg), B302 (50 mg/kg) or vehicle [10% N,N-dimethylacetamide (DMAC, Sangon Biotech) and 6% polyethylene glycol 12-hydroxystearate (Solutol HS-15, MedChem Express, Monmouth Junction, NJ, USA) in saline] treatment via an intraperitoneal injection once daily. […]

recombinant HDAC1 = biological target: T3, recombinant HDAC1 (Homo sapiens, UniProt Q13547); test: HDAC1 inhibition assay (Ac-peptide-AMC fluorescence); format: biochemical
T3 construct: purchased Active Motif
Description: as §1

T1 sequence (P09874 whole entry): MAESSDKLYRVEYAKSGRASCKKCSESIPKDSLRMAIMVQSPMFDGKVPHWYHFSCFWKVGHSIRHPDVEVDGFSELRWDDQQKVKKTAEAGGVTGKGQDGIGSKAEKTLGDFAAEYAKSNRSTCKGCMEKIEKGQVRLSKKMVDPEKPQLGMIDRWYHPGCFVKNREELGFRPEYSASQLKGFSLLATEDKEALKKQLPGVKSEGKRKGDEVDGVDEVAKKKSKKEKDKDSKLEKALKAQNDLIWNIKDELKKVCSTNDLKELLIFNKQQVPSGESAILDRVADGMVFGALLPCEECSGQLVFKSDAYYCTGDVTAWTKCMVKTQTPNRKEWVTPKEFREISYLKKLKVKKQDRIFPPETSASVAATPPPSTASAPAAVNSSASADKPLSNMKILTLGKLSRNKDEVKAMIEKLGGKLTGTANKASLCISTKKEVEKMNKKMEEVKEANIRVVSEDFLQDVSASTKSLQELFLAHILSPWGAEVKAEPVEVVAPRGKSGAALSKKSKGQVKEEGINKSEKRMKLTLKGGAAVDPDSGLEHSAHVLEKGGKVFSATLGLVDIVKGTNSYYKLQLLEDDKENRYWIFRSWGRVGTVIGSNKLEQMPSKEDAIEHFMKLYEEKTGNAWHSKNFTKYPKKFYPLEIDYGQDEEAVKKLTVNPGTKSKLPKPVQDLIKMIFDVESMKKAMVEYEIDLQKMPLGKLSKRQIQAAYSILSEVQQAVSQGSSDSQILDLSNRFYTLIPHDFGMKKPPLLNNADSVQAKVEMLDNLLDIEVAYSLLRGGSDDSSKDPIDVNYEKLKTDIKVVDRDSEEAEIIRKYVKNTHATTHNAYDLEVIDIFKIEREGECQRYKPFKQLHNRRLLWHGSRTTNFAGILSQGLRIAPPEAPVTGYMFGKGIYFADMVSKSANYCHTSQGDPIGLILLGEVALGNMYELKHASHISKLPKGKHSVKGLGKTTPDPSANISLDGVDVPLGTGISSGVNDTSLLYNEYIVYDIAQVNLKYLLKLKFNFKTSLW
T3 sequence (Q13547 whole entry): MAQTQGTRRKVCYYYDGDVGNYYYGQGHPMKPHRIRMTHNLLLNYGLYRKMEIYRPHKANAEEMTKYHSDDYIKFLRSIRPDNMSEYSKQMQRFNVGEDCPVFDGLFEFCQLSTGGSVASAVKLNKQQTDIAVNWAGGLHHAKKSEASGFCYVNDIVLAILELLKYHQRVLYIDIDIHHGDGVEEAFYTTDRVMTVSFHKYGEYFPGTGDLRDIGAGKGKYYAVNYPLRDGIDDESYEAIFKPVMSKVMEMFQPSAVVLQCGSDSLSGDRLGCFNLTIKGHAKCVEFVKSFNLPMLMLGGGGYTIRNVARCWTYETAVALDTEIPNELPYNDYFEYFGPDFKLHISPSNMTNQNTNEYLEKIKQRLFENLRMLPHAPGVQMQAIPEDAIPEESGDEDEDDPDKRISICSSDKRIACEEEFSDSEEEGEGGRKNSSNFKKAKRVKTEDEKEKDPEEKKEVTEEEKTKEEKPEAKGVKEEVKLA

Which IC50 (PARP1) does the source give for `Nc1cc(F)ccc1NC(=O)CCc1ccc(CN2CCN(C(=O)c3cc(Cc4n[nH]c(=O)c5ccccc45)ccc3F)CC2)cc1` [Compound B302] here?
The IC50 was 0.0127 µM.

What about the IC50 (MCF-10A cells) of the same molecule?
The IC50 was 36.8 ± 6.59 µM.

And the IC50 (recombinant HDAC6)?
Its IC50 is over 10 µM.

And the “body weights of tumor-bearing mice” value ([1]; 50 mg/kg/d)?
The value was “not obviously altered”.

What about the IC50 (recombinant HDAC1) of the same molecule?
The IC50 was over 10 µM.

For `Nc1cc(F)ccc1NC(=O)/C=C/c1ccc(CN2CCN(C(=O)c3cc(Cc4n[nH]c(=O)c5ccccc45)ccc3F)CC2)cc1` [Compound B102], which IC50 (PARP1) is on record?
Its IC50 is 0.019 µM.

What about the IC50 (MCF-10A cells) of the same molecule?
The IC50 was 13.7 ± 0.23 µM.

What about the IC50 (recombinant HDAC6) of the same molecule?
The IC50 was over 10 µM.

And the “body weights of tumor-bearing mice” value ([1]; 15 mg/kg/d)?
Its value is “not obviously altered”.

What about the IC50 (recombinant HDAC1) of the same molecule?
Its IC50 is 1.69 µM.
